Assay [1] concerns HL-60. Kind of assay: Cell cycle arrest in human HL60 cells assessed as accumulation at G0/G1 phase at 10 uM after 72 hrs by propidium iodide staining-based flow cytometry (reference value: 65.7 +/- 0.1%). It counts as functional.
For assay [2], the system named is HL-60. The assay can be described thus: Cell cycle arrest in human HL60 cells assessed as accumulation at S phase at 25 uM after 72 hrs by propidium iodide staining-based flow cytometry (reference value: 16.4 +/- 0.8%). In kind it is functional. On the technique in general: Flow cytometry measures light scatter and fluorescence of single cells or particles in a stream.

The test system of assay [3] is HL-60. Kind of assay: Cell cycle arrest in human HL60 cells assessed as accumulation at Gn phase at 1 uM after 48 hrs by propidium iodide staining-based flow cytometry (reference value: 2.49 +/- 0.4%). It counts as functional.
In assay [4] the test system is HL-60. The assay can be described thus: Cell cycle arrest in human HL60 cells assessed as accumulation at G2/M phase at 50 uM after 72 hrs by propidium iodide staining-based flow cytometry (reference value: 14.8 +/- 0.7%). In kind it is functional.
The subject of assay [5] is HL-60. Kind of assay: Cell cycle arrest in human HL60 cells assessed as accumulation at G2/M phase at 10 uM after 72 hrs by propidium iodide staining-based flow cytometry (reference value: 14.8 +/- 0.7%). In kind it is functional.
Assay [6] relates to HL-60. The assay can be described thus: Cytotoxicity against human HL60 cells after 72 hrs by Alamar Blue assay. It counts as functional, cell-based. The note with it: HL-60, 72 h. For orientation: Alamar Blue is a resazurin reagent that responds to reducing activity.
Assay [7] deals with HL-60. The assay can be described thus: Cell cycle arrest in human HL60 cells assessed as accumulation at Gn phase at 10 uM after 48 hrs by propidium iodide staining-based flow cytometry (reference value: 2.49 +/- 0.4%). In kind it is functional.
Assay [8] has as its system HL-60. The assay can be described thus: Cell cycle arrest in human HL60 cells assessed as accumulation at G0/G1 phase at 25 uM after 72 hrs by propidium iodide staining-based flow cytometry (reference value: 65.7 +/- 0.1%). It counts as functional.
The test system of assay [9] is HL-60. The assay can be described thus: Cell cycle arrest in human HL60 cells assessed as accumulation at G2/M phase at 25 uM after 72 hrs by propidium iodide staining-based flow cytometry (reference value: 14.8 +/- 0.7%). It counts as functional.
In assay [10] the test system is HL-60. Kind of assay: Cell cycle arrest in human HL60 cells assessed as accumulation at Gn phase at 50 uM after 48 hrs by propidium iodide staining-based flow cytometry (reference value: 2.49 +/- 0.4%). It counts as functional.
The test system of assay [11] is HL-60. The assay can be described thus: Cell cycle arrest in human HL60 cells assessed as accumulation at pre-G1 phase at 1 uM after 48 hrs by propidium iodide staining-based flow cytometry (reference value: 0.17%). In kind it is functional.
The subject of assay [12] is HL-60. Kind of assay: Cell cycle arrest in human HL60 cells assessed as accumulation at Gn phase at 10 uM after 72 hrs by propidium iodide staining-based flow cytometry (reference value: 2.49 +/- 0.3%). In kind it is functional.

The source of these data is ChEMBL document CHEMBL3286227, “Guanidinium-based derivatives: searching for new kinase inhibitors” (Eur J Med Chem, 2014).

On to `Cl.N=C(N)Nc1ccc(Oc2cccc(NC(=N)Nc3ccc(Cl)c(C(F)(F)F)c3)c2)cc1`, for which the Activity was found to be 61.3% in the assay on HL-60 [1]; 4.19% with HL-60 [2]; 2.17% with HL-60 [3]; 13.6% in the assay with HL-60 [4]; 18.9% with HL-60 [5]; 2.17% in the assay on HL-60 [7]. For the same compound, the Activity is reported as 73.4% with HL-60 [8]; 12.9% with HL-60 [9]; 3.14% in the assay on HL-60 [10]; 0.13% in the assay with HL-60 [11]; 3.36% in the assay with HL-60 [12]. In the assay on HL-60 [6], this compound returned a 50% inhibitory concentration (IC50) of 9.72 µM.

In general, IC50 refers to the concentration that gives 50% inhibition.
